Results taken from patent US8501767B2, “Imidazopyridines and imidazopyrimidines as HIV-1 reverse transcriptase inhibitors” (CSIR, priority 2008, dated 2013).
pIC50: −log10 of the molar value.

What was measured:
[1] = target: HIV-1 reverse transcriptase (Human immunodeficiency virus type 1 group M subtype B (isolate HXB2) (HIV-1), UniProt P04585); experiment: Enzymatic assay against HIV-1 reverse transcriptase (sandwich-ELISA, ROCHE colorimetric reverse transcriptase kit); assay type: biochemical; details: 4-fold serial dilutions
Method: Enzymatic Method for Determining Activity Against Reverse Transcriptase
Biotin and DIG-labelled nucleotides are incorporated into cDNA strands polymerized on an RNA template by the action of HIV-1 reverse transcriptase. The cDNA products are bound to streptavidin-coated wells of 96-well plate inserts, and their associated DIG-moieties detected by incubation with anti-DIG antibodies conjugated to horseradish peroxidase (HRP).
In the single concentration screen, compounds are incubated with HIV-1 reverse trancriptase and substrate and the residual enzyme activity expressed as a percentage relative to a control without inhibitor.

HIV-1 [2] = experiment: Whole cell MAGI anti-HIV assay (MAGI-R5 cells, LTR-β-galactosidase reporter); assay type: cell-based; details: Human immunodeficiency virus 1, MAGI
HIV-1 [3] = experiment: Whole cell PBMC anti-HIV assay (human PBMCs, supernatant reverse transcriptase activity); assay type: cell-based; details: Human immunodeficiency virus 1, PBMC
Method: Fresh human PBMCs, seronegative for HIV and HBV, were isolated from screened donors (Interstate Blood Bank, Inc. Memphis, Tenn.). Cells were pelleted/washed 2-3 times by low speed centrifugation and re-suspension in PBS to remove contaminating platelets. The Leukophoresed blood was then diluted 1:1 with Dulbecco's Phosphate Buffered Saline (DPBS) and layered over 14 mL of Lymphocyte Separation Medium (LSM; Cellgro® by Mediatech, Inc.; density 1.078+/−0.002 g/ml; Cat.#85-072-CL) in a 50 mL centrifuge tube and then centrifuged for 30 minutes at 600×g. Banded PBMCs were gently aspirated from the resulting interface and subsequently washed 2× with PBS by low speed centrifugation. […]
For the standard PBMC assay, PHA-P stimulated cells from at least two normal donors were pooled (mixed together), diluted in fresh medium to a final concentration of 1×10^6 cells/mL, and plated in the interior wells of a 96 well round bottom microplate at 50 μl/well (5×10^4 cells/well) in a standard format developed by the Infectious Disease Research department of Southern Research Institute. Pooling (mixing) of mononuclear cells from more than one donor is used to minimize the variability observed between individual donors, which results from quantitative and qualitative differences in HIV infection and overall response to the PHA and IL-2 of primary lymphocyte populations. […]

SMILES	pIC50 [1]	pIC50 (HIV-1 [2])	pIC50 (HIV-1 [3])
Clc1ccccc1-c1nc2cccc(Cl)n2c1NC1CCCCC1 [Compound 104, 5-chloro-2-(2-chlorophenyl)-N-cyclohexylimidazo[1,2-a]pyridin-3-amine]	5.43		
Cc1ccc2nc(-c3ccccc3Cl)c(NC3CCCCC3)n2c1 [Compound 163, 2-(2-chlorophenyl)-N-cyclohexyl-6-methylimidazo[1,2-a]pyridin-3-amine]	5.27		
Clc1ccc2nc(-c3ccccc3Cl)c(NC3CCCCC3)n2c1 [Compound 82, 6-chloro-2-(2-chlorophenyl)-N-cyclohexylimidazo[1,2-a]pyridin-3-amine]	4.84	6.08	
Cc1cccc2nc(-c3ccccc3Cl)c(NC3CCCC3)n12 [Compound 171, 2-(2-chlorophenyl)-N-cyclopentyl-5-methylimidazo[1,2-a]pyridin-3-amine]	5.84		
Clc1ccc(-c2nc3ccccn3c2NC2CCCCC2)c(Cl)c1 [Compound 89, N-cyclohexyl-2-(2,4-dichlorophenyl)imidazo[1,2-a]pyridin-3-amine]	4.66	5.53	
Cc1ccnc2c1NC(=O)c1cccnc1N2C1CC1 [Nevirapine, reference compound]		7.00	7.48
Cc1ccc(Cl)c(-c2nc3ccccn3c2NC2CCCCC2)c1F [Compound 74, 2-(6-chloro-2-fluoro-3-methylphenyl)-N-cyclohexylimidazo[1,2-a]pyridin-3-amine]	4.05	5.63	
N#Cc1ccc2nc(-c3ccccc3Cl)c(NC3CCCCC3)n2c1 [Compound 96, 2-(2-chlorophenyl)-3-(cyclohexylamino)imidazo[1,2-a]pyridine-6-carbonitrile]	5.18	6.20	
N#Cc1cccc2nc(-c3ccccc3Cl)c(NC3CCCCC3)n12 [Compound 116, 2-(2-chlorophenyl)-3-(cyclohexylamino)imidazo[1,2-a]pyridine-5-carbonitrile]	5.46		
Cc1cccn2c(NC3CCCC3)c(-c3ccccc3Cl)nc12 [Compound 170, 2-(2-chlorophenyl)-N-cyclopentyl-8-methylimidazo[1,2-a]pyridin-3-amine]	4.80		
Cc1cccc2nc(-c3ccccc3Cl)c(NC3CCCCC3)n12 [Compound 166, 2-(2-chlorophenyl)-N-cyclohexyl-5-methylimidazo[1,2-a]pyridin-3-amine]	5.81		
Clc1ccccc1-c1nc2cccc(Cl)n2c1NC1CCCC1 [Compound 48, 5-chloro-2-(2-chlorophenyl)-N-cyclopentylimidazo[1,2-a]pyridin-3-amine]	5.29		
Clc1ccccc1-c1nc2ccc(Br)cn2c1NC1CCCCC1 [Compound 99, 6-bromo-2-(2-chlorophenyl)-N-cyclohexylimidazo[1,2-a]pyridin-3-amine]	4.91	5.66	
Clc1ccccc1-c1nc2ccccn2c1NC1CCCCC1 [Compound 8, 2-(2-chlorophenyl)-N-cyclohexylimidazo[1,2-a]pyridin-3-amine]			6.80
Clc1ccccc1-c1nc2cccc(Br)n2c1NC1CCCCC1 [Compound 42, 5-bromo-2-(2-chlorophenyl)-N-cyclohexylimidazo[1,2-a]pyridin-3-amine]	5.34	5.50	
Clc1ccccc1-c1nc2ccc3ccccc3n2c1NC1CCCCC1 [Compound 97, 2-(2-chlorophenyl)-N-cyclohexylimidazo[1,2-a]quinolin-1-amine]	5.12		
Fc1ccc2nc(-c3ccccc3Cl)c(NC3CCCCC3)n2c1 [Compound 81, 2-(2-chlorophenyl)-N-cyclohexyl-6-fluoroimidazo[1,2-a]pyridin-3-amine]	4.95	5.73	
Clc1ccccc1-c1nc2ccccn2c1NC1CCCC1 [Compound 118, 2-(2-chlorophenyl)-N-cyclopentylimidazo[1,2-a]pyridin-3-amine]		5.66	
Brc1ccccc1-c1nc2ccccn2c1NC1CCCCC1 [Compound 43, 2-(2-bromophenyl)-N-cyclohexylimidazo[1,2-a]pyridin-3-amine]	5.00	5.66	
